Assay results published in patent US7816096B2, “Assay solution compositions and methods for GPCR arrays” (priority 2003, dated 2010).

Assays:
[1] = target: neurotensin receptor Subtype-1 (NTR1) (Homo sapiens, UniProt P30989); settings: 100 mM NaCl present or absent; 2 nM Bodipy-TMR-neurotensin 2-13
Protocol: (§1) For the binding assays, each individual array was incubated with 10 μl of a solution containing labeled ligand(s) at a particular concentration in the absence and presence of varying amounts (0-1000 nM) of unlabeled compounds. The binding buffer used for all experiments was Tris-HCl (50 mM, pH 7.4) containing 10 mM MgCl2, 0.1% BSA and 1 mM EDTA.
(§2) After executing the binding assays, the microarrays are washed and dried, and then examined using Genepix scanner 4000 (Axon Instruments, Union City, Calif.). Using Genepix software, resulting data is analyzed. Each data point in the plots represents the average of at least three replicate micospots. Using non-linear regression analysis (Graphpad PRISM, Graphpad Software Inc., San Diego, Calif.), one can estimate Kd and IC50.

NTR1 = NTR1 (Rattus norvegicus, UniProt P20789); settings: cited from earlier work
[2] = target: T1, muscarinic receptor subtype 1 (M1) (Homo sapiens, UniProt P11229); assay: multiplexed competitive binding assay on GPCR microarray; settings: 1 uM unlabeled telenzepine; cocktail of labeled ligands incl. 2 nM Cy3B-telenezepine
T1 sequence (P11229 1-460): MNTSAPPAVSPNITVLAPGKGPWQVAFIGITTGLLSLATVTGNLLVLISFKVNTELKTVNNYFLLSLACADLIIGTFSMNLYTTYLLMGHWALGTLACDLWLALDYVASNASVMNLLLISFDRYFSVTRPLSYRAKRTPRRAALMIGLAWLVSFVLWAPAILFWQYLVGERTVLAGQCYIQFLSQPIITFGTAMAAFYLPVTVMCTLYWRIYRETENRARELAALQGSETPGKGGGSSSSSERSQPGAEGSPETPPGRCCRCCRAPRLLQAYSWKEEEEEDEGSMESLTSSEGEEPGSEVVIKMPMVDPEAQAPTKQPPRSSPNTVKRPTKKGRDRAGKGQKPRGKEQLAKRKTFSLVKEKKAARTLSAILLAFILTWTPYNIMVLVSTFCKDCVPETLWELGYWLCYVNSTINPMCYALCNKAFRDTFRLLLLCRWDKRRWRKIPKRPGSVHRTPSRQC
Protocol: FIGS. 2C & 2D, respectively, are graphs of the percent of total detected signal in the presence and absence of 1 μM telenzepine.
A single buffered binding solution composition, according to the invention—including for example, 50 mM Tris-HCl, pH 7.4, 10 mM MgCl2, 1 mM EDTA, 0.1 wt. % BSA—is used for multiplexed competitive binding assay. […] Telenzepine is an antagonist for M1 receptor alone.
as §1, §2

Chain of NTR1 (P20789 whole entry): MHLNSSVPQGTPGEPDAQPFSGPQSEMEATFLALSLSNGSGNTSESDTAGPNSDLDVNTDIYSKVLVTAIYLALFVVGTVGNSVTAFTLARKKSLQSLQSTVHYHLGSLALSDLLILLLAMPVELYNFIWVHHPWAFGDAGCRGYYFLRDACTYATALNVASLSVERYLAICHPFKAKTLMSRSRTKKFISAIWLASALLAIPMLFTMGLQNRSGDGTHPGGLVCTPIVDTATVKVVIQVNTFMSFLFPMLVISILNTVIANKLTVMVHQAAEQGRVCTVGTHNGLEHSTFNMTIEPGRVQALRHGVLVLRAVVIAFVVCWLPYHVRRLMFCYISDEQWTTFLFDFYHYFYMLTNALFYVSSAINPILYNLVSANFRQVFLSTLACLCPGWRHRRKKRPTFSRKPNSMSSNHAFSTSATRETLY
Chain of neurotensin receptor Subtype-1 (NTR1) (P30989 whole entry): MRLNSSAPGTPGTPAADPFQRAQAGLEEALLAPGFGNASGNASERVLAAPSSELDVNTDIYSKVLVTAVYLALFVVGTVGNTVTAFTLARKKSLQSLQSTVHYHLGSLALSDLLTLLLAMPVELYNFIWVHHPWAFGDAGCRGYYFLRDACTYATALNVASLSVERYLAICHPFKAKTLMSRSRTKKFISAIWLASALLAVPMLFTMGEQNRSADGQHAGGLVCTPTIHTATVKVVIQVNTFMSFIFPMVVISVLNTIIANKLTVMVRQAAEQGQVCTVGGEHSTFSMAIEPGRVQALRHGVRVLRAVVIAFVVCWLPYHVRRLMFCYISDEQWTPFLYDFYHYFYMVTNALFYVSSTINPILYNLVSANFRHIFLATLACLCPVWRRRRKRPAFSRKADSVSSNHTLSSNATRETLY

## [Cl-].[Na+] [NaCl]
[1]
  effect on binding of BT-NT to NTR1 (total binding signal): strongly influences

## [Na+] [sodium ions]
NTR1; read-out: IC50 for inhibition of binding of radio-labeled neurotensin to NTR1
  IC50: 18 mM
NTR1; sodium ions at a concentration as low as about 20 mM
  inhibition of binding of radio-labeled neurotensin to NTR1: at least 50%

## Cc1scc2c1N(C(=O)CN1CCN(C)CC1)c1ccccc1NC2=O [telenzepine]
[2]
  inhibition of the binding of labeled ligands to M1 receptors: specific and selective inhibition
